Holding throughout (assay type): biochemical
One experiment deals with PAK1 (Homo sapiens, UniProt Q13153). Kind of experiment: In vitro PAK inhibition assay (SelectScreen, Ser/Thr 19 peptide). The essentials: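 Kinase reaction ran in 50 mM HEPES pH 7.5, 0.01% BRIJ-35, 10 mM MgCl2, 1 mM EGTA with Ser/Thr 19 peptide for 60 min at room temperature, followed by 60 min protease development. Fluorescence gave percent phosphorylation. Compounds were tested as 10-point, 3-fold titrations in 1% DMSO final.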
Sequence of PAK1 (Q13153 whole entry): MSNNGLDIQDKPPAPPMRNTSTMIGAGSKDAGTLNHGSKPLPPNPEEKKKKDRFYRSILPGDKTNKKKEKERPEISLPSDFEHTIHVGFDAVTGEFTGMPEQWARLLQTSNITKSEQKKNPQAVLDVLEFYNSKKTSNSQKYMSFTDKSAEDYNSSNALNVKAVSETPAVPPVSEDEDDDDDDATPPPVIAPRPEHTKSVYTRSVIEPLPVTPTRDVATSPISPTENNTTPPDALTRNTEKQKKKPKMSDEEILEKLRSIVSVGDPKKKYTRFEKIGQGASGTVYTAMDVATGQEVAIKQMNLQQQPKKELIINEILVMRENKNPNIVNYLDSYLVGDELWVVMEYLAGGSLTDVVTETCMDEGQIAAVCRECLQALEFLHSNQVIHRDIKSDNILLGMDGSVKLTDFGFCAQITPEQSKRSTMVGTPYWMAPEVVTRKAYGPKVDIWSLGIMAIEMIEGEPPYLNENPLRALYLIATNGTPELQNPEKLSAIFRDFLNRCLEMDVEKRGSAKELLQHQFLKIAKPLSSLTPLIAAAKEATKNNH

The target in another experiment is PAK3 (Homo sapiens, UniProt O75914). As to the kind of experiment: In vitro PAK inhibition assay (SelectScreen, Ser/Thr 20 peptide). Summed up:
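PAK3 phosphorylation of Ser/Thr 20 peptide in 50 mM HEPES pH 7.5, 0.01% BRIJ-35, 10 mM MgCl2, 1 mM EGTA, 1% DMSO final; 60 min at room temperature, then 60 min development reaction with fluorescence read-out. 10-point 3-fold titrations; percent phosphorylation from 0% and 100% phosphopeptide controls.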

Another experiment addresses PAK2 (PAK65) (Homo sapiens, UniProt Q13177). Described as above. Summed up:
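FRET-based peptide cleavage assay: 0.29-6 ng PAK2 and 2 μM Ser/Thr 20 peptide in 50 mM HEPES pH 7.5, 10 mM MgCl2, 1 mM EGTA, 0.01% BRIJ-35, 1% DMSO final. Kinase reaction 60 min at room temperature, then 60 min development; 10-point 3-fold titrations, percent phosphorylation from fluorescence.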

A further experiment concerns the target PAK4 (Homo sapiens, UniProt O96013). The experiment is described as above. Summed up: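 FRET-based Ser/Thr 20 peptide phosphorylation: 0.1-0.75 ng PAK4, 2 μM peptide in 50 mM HEPES pH 7.5, 10 mM MgCl2, 1 mM EGTA, 0.01% BRIJ-35, 1% DMSO; 60 min at room temperature, then 60 min protease development. 10-point 3-fold titrations; IC50 from sigmoidal fit.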

Results on 28 molecules are retold here after patent publication US20140163026A1, “8-ETHYL-6-(ARYL)PYRIDO[2,3-D]PYRIMIDIN-7(8H)-ONES FOR THE TREATMENT OF NERVOUS SYSTEM DISORDERS AND CANCER” (Afraxis Holdings, Inc., priority 2011, published 2014).

Some results are limits rather than exact numbers.

Sequence of PAK4 (O96013 whole entry): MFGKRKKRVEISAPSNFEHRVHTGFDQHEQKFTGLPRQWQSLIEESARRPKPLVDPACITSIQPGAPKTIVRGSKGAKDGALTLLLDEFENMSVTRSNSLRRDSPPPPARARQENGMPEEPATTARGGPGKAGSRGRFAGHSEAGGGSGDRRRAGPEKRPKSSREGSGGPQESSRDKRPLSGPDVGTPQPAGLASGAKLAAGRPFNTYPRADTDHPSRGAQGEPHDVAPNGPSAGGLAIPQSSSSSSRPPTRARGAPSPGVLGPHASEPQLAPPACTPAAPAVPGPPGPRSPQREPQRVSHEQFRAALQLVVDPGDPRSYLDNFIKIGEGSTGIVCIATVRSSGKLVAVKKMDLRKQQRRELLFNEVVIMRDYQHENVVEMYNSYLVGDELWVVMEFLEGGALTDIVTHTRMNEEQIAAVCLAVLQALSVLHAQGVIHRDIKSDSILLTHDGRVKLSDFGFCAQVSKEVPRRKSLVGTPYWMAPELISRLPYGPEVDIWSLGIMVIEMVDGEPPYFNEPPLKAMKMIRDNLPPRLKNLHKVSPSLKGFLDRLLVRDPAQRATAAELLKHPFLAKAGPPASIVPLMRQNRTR
Sequence of PAK2 (PAK65) (Q13177 whole entry): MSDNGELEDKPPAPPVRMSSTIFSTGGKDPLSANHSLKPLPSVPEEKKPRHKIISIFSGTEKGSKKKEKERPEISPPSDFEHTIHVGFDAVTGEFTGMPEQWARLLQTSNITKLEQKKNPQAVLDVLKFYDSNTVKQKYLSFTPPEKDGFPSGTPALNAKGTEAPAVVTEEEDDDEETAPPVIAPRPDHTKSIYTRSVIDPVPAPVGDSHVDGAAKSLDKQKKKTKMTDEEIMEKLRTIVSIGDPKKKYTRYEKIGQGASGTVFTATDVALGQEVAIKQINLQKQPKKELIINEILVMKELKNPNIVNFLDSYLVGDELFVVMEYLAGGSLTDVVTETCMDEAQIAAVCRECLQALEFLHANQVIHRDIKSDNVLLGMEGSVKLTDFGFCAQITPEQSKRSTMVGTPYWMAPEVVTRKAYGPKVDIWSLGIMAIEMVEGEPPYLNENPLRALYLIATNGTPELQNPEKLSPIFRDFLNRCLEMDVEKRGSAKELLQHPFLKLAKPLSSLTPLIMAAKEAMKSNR
Sequence of PAK3 (O75914 whole entry): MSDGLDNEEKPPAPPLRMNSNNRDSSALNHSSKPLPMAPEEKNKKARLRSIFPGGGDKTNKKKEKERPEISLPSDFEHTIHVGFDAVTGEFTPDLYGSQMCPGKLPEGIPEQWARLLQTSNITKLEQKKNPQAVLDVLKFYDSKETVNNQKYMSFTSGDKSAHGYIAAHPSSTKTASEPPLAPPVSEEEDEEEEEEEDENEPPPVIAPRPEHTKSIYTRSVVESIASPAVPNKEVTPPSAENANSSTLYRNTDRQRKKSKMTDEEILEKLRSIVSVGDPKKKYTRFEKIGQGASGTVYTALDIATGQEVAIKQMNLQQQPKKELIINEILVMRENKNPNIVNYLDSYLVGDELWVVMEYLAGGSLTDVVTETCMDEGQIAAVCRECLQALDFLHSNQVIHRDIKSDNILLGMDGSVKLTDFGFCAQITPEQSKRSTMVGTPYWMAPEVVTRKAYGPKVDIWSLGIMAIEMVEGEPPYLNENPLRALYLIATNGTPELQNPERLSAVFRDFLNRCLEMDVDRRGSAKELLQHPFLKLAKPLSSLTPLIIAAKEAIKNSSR

By IC50 is commonly meant the point on the concentration scale where inhibition reaches its midpoint. In the case of `CCn1c(=O)c(-c2ccc(-c3ccncc3)cc2Cl)cc2cnc(Nc3ccc(N4CCN(C)CC4)cc3)nc21`, the IC50 against PAK1 was below 50 nM; at PAK3, below 50 nM; against PAK2 (PAK65), below 50 nM; against PAK4, at least 5000 nM.

With `CCn1c(=O)c(-c2ccc(-c3cccnc3)cc2Cl)cc2cnc(Nc3ccc(N4CCN(C)CC4)cc3)nc21`, the IC50 against PAK1 is below 50 nM; on PAK3 it was below 50 nM; against PAK2 (PAK65), below 50 nM; at PAK4, 500 to 5000 nM.

As for `CCn1c(=O)c(-c2ccc(-c3ccoc3)cc2Cl)cc2cnc(Nc3ccc(N4CCN(C)CC4)cc3)nc21`, the half-maximal inhibitory concentration (IC50) was below 50 nM against PAK1, below 50 nM against PAK3, below 50 nM at PAK2 (PAK65) and at least 5000 nM against PAK4.

In the case of `CCn1c(=O)c(-c2ccc(-c3ccnc(C(=O)NC)c3)cc2Cl)cc2cnc(Nc3ccc(CCN(C)C)cc3)nc21`, the half-maximal inhibitory concentration (IC50) against PAK1 is 50 to 500 nM; against PAK3, 50 to 500 nM; on PAK2 (PAK65) it was 50 to 500 nM; on PAK4, at least 5000 nM.

`CCn1c(=O)c(-c2ccc(-c3noc(C)n3)cc2Cl)cc2cnc(Nc3ccc(C4=CCNCC4)cc3)nc21`: the half-inhibitory concentration (IC50) against PAK1 was below 50 nM; against PAK3 it was below 50 nM; against PAK2 (PAK65), below 50 nM; at PAK4, 500 to 5000 nM.

For the molecule `CCN1CCC(c2ccc(Nc3ncc4cc(-c5ccc(-c6ccnc(C(=O)NC)c6)cc5Cl)c(=O)n(CC)c4n3)cc2)CC1`, the concentration for half-maximal inhibition (IC50) on PAK1 is 50 to 500 nM; on PAK3, 50 to 500 nM; against PAK2 (PAK65), 50 to 500 nM; against PAK4 it was 500 to 5000 nM.

Regarding `CCn1c(=O)c(-c2ccc(-c3noc(C)n3)cc2Cl)cc2cnc(Nc3ccc(C4=CCN(C)CC4)cc3)nc21`, the half-maximal inhibitory concentration (IC50) at PAK1 was below 50 nM; on PAK3, below 50 nM; against PAK2 (PAK65) it was below 50 nM; on PAK4, 500 to 5000 nM.

Regarding `CCn1c(=O)c(-c2ccc(-c3ccnc(C(=O)NC)c3)cc2Cl)cc2cnc(Nc3ccc(C4CCNCC4)c(F)c3)nc21`, the IC50 against PAK1 is 50 to 500 nM; against PAK3 it was above 5000 nM; against PAK2 (PAK65), 50 to 500 nM; on PAK4, at least 5000 nM.

As for `CCn1c(=O)c(-c2ccc(-c3ccc(C)nc3F)cc2Cl)cc2cnc(Nc3ccc(C4CCNCC4)cc3)nc21`, the half-inhibitory concentration (IC50) on PAK1 was below 50 nM; on PAK3, 50 to 500 nM; against PAK2 (PAK65), below 50 nM; against PAK4, 500 to 5000 nM.

As to `CCn1c(=O)c(-c2ccc(-c3cccnc3C)cc2Cl)cc2cnc(Nc3ccc(C4CCN5CCCC5C4)cc3)nc21` (stereo not shown), the 50% inhibitory concentration (IC50) at PAK1 was below 50 nM; at PAK3, 50 to 500 nM; at PAK2 (PAK65), 50 to 500 nM; at PAK4 it was at least 5000 nM.

With `CCn1c(=O)c(-c2ccc(-c3ccc(C)nc3F)cc2Cl)cc2cnc(Nc3ccc(C4CCN(C(C)C)CC4)cc3)nc21`, the half-maximal inhibitory concentration (IC50) at PAK1 was 50 to 500 nM; against PAK3, 50 to 500 nM; on PAK2 (PAK65), below 50 nM; on PAK4, 500 to 5000 nM.

Regarding `CCn1c(=O)c(-c2ccc(-c3cccnc3C)cc2Cl)cc2cnc(Nc3ccc(C4CCN(C(C)C)CC4)cc3)nc21`, the half-inhibitory concentration (IC50) is below 50 nM at PAK1, 50 to 500 nM at PAK3, 50 to 500 nM on PAK2 (PAK65) and at least 5000 nM on PAK4.

Consider `CCN1CCC(c2ccc(Nc3ncc4cc(-c5ccc(-c6ccc(C)nc6F)cc5Cl)c(=O)n(CC)c4n3)cc2)CC1`, for which the IC50 at PAK1 was 50 to 500 nM; against PAK3 it was 50 to 500 nM; against PAK2 (PAK65), 50 to 500 nM; against PAK4, 500 to 5000 nM.

`CCn1c(=O)c(-c2ccc(-c3ccc(C)nc3)cc2Cl)cc2cnc(Nc3ccc(CCN(C)C)cc3)nc21`: the IC50 against PAK1 was below 50 nM; against PAK3 it was 50 to 500 nM; against PAK2 (PAK65), below 50 nM; against PAK4, 500 to 5000 nM.

Turning to `CCn1c(=O)c(-c2ccc(-c3ccc(C)nc3F)cc2Cl)cc2cnc(Nc3ccc(CCN(C)C)cc3)nc21`, the IC50 on PAK1 is below 50 nM; at PAK3, below 50 nM; against PAK2 (PAK65), below 50 nM; on PAK4, 500 to 5000 nM.

As for `CCn1c(=O)c(-c2ccc(-c3cccnc3F)cc2Cl)cc2cnc(Nc3ccc(C4CCN(C(C)C)CC4)cc3)nc21`, the IC50 was below 50 nM against PAK1, below 50 nM at PAK3, below 50 nM against PAK2 (PAK65) and 500 to 5000 nM at PAK4.

In the case of `CCn1c(=O)c(-c2ccc(-c3cccnc3C)cc2Cl)cc2cnc(Nc3ccc(CCN(C)C)cc3)nc21`, the IC50 is below 50 nM against PAK1, 50 to 500 nM against PAK3, below 50 nM at PAK2 (PAK65) and at least 5000 nM at PAK4.

Consider `CCn1c(=O)c(-c2ccc(-c3cccnc3F)cc2Cl)cc2cnc(Nc3ccc(CCN(C)C)cc3)nc21`, for which the IC50 against PAK1 was below 50 nM; against PAK3, below 50 nM; against PAK2 (PAK65), below 50 nM; at PAK4 it was 50 to 500 nM.

Take `CCN1CCC(c2ccc(Nc3ncc4cc(-c5ccc(-c6ccc(F)nc6C)cc5Cl)c(=O)n(CC)c4n3)cc2)CC1`: the 50% inhibitory concentration (IC50) against PAK1 was below 50 nM; at PAK3, 50 to 500 nM; against PAK2 (PAK65), 50 to 500 nM; against PAK4, at least 5000 nM.

As for `CCN1CCC(c2ccc(Nc3ncc4cc(-c5ccc(-c6cccnc6F)cc5Cl)c(=O)n(CC)c4n3)cc2)CC1`, the IC50 is below 50 nM against PAK1, below 50 nM against PAK3, below 50 nM on PAK2 (PAK65) and 50 to 500 nM against PAK4.

For the molecule `CCn1c(=O)c(-c2ccc(-c3ccc(F)nc3C)cc2Cl)cc2cnc(Nc3ccc(C4CCNCC4)cc3)nc21`, the IC50 against PAK1 is below 50 nM; against PAK3, 50 to 500 nM; against PAK2 (PAK65), 50 to 500 nM; against PAK4, at least 5000 nM.

For `CCn1c(=O)c(-c2ccc(-c3ccc(C)nc3F)cc2Cl)cc2cnc(Nc3ccc(C4CCNCC4)c(F)c3)nc21`, the IC50 is 50 to 500 nM against PAK1, 50 to 500 nM against PAK3, 50 to 500 nM at PAK2 (PAK65) and 500 to 5000 nM at PAK4.

Regarding `CCn1c(=O)c(-c2ccc(-c3cccnc3F)cc2Cl)cc2cnc(Nc3ccc(C4CCNCC4)c(F)c3)nc21`, the IC50 at PAK1 is below 50 nM; against PAK3 it was below 50 nM; against PAK2 (PAK65) it was below 50 nM; at PAK4 it was 500 to 5000 nM.

With `CCn1c(=O)c(-c2ccc(-c3ccc(C)nc3F)cc2Cl)cc2cnc(Nc3ccc(C4CCN(C)CC4)cc3)nc21`, the 50% inhibitory concentration (IC50) against PAK1 is below 50 nM; against PAK3, 50 to 500 nM; at PAK2 (PAK65), below 50 nM; on PAK4, 500 to 5000 nM.

Consider `CCn1c(=O)c(-c2ccc(-c3ccc(C)nc3)cc2Cl)cc2cnc(Nc3ccc(C4CCN(C)CC4)c(F)c3)nc21`, for which the concentration for half-maximal inhibition (IC50) against PAK1 was below 50 nM; against PAK3 it was 50 to 500 nM; at PAK2 (PAK65), below 50 nM; against PAK4 it was at least 5000 nM.

Regarding `CCn1c(=O)c(-c2ccc(-c3cccnc3F)cc2Cl)cc2cnc(Nc3ccc(C4CCN(C)CC4)c(F)c3)nc21`, the IC50 on PAK1 is below 50 nM; against PAK3, below 50 nM; against PAK2 (PAK65) it was below 50 nM; against PAK4, 500 to 5000 nM.

As for `CCn1c(=O)c(-c2ccc(-c3cccnc3C)cc2Cl)cc2cnc(Nc3ccc(C4CCN(C)CC4)c(F)c3)nc21`, the IC50 at PAK1 was below 50 nM; at PAK3 it was 50 to 500 nM; on PAK2 (PAK65), 50 to 500 nM; against PAK4, at least 5000 nM.

On to `CCN1CCC(c2ccc(Nc3ncc4cc(-c5ccc(-c6ccc(C)nc6)cc5Cl)c(=O)n(CC)c4n3)cc2F)CC1`, for which the 50% inhibitory concentration (IC50) is below 50 nM at PAK1, 50 to 500 nM against PAK3, below 50 nM at PAK2 (PAK65) and 500 to 5000 nM against PAK4.
